This is an account of results in article PMC3696112 (PLoS ONE, 2013).

In the assay the target is T1, Ech (enoyl-CoA hydratase/aldolase) (Streptomyces sp. V-1, UniProt S5LPF1).
T1 construct: ATCC 39116
T1 sequence (S5LPF1 1-287): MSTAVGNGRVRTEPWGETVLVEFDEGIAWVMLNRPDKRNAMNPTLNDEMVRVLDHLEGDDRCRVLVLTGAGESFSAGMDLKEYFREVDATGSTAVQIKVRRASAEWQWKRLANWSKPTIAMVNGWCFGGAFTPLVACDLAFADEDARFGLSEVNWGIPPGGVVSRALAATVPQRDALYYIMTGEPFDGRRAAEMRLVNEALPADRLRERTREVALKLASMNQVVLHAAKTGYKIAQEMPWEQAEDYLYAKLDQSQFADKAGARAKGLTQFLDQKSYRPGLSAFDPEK
The assay is described as follows: coupled assay with purified Fcs, GC analysis (qualitative). Format: biochemical. The conditions noted are these: feruloyl-CoA made in situ from 0.7 mM ferulic acid by Fcs; 2 mM ATP, 0.4 mM CoA, 2.5 mM MgCl2, 100 mM potassium phosphate pH 7.0.

With `COc1cc(C=O)ccc1O` [vanillin, 4-hydroxy-3-methoxybenzaldehyde], the “coupled assay with purified Fcs, GC analysis (qualitative)” value is “production of vanillin, catalyzed by Ech, were observed and analyzed qualitatively from the GC spectrum”.
